Publication PMC8776995 (Frontiers in Chemistry, 2022)
“And” between values parts separate entries of the source, which are not always exact repeats. Equal entries are not always repeated.

Tests used:
wild-type EGFR = wild-type EGFR (Homo sapiens, UniProt P00533); test: EGFR kinase assay (ELISA); conditions: for IC50: IC50 (μM) EGFR, ELISA, 3 μmol/L ATP; for inhibition at 100 fM: concentration 0.0001 nM (reference for normalisation); for inhibition at 100 fM / inhibition at 30 pM / inhibition at 0.0003 µM / Inhibition / inhibition at 0.003 µM / inhibition at 0.03 µM / inhibition at 0.3 µM / inhibition at 3 µM / inhibition at 30 µM: one value per replicate column; for A450: raw ELISA absorbance
Sequence of wild-type EGFR (P00533 25-1210): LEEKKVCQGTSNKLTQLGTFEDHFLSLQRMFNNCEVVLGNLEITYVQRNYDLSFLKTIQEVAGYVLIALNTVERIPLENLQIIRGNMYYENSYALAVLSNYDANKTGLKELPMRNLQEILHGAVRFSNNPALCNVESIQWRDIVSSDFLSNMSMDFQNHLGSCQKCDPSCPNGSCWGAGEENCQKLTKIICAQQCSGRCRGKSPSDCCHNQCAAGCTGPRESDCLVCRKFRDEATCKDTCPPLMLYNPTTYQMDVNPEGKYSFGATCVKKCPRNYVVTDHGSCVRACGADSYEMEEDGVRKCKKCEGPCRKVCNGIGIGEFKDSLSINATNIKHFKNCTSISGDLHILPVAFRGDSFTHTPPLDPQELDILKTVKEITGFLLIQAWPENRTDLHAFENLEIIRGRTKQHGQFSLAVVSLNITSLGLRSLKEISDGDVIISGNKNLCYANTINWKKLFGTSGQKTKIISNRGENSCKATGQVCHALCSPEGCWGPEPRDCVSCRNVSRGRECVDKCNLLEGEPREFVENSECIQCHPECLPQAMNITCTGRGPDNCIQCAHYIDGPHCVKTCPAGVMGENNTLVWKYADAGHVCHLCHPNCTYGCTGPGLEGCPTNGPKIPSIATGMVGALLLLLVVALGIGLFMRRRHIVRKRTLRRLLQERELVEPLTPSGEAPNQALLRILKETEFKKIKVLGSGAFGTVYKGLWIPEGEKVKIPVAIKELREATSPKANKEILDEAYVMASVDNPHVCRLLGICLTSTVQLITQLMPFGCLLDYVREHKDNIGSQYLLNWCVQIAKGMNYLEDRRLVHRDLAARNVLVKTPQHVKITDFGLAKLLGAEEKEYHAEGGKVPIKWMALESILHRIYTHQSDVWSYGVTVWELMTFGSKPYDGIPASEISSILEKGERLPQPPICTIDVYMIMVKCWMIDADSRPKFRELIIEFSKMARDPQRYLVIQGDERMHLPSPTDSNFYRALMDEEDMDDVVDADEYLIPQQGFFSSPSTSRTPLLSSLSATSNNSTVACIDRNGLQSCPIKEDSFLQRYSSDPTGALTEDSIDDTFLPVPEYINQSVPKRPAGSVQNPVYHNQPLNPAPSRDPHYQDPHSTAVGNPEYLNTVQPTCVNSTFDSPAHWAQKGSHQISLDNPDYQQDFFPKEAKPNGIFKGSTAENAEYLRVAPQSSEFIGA

H460 cells = test: CCK-8 antiproliferation assay, H460; conditions: for Inhibitory efficacy: H460 cells; for IC50: NCI-H460, 48 h, read-out: IC50 (μM) H460, CCK-8, 48 h, average ± SD of three independent experiments
A549 cells = test: CCK-8 antiproliferation assay, A549; conditions: for Inhibitory efficacy: A549 cells; for IC50: A549, 48 h, read-out: IC50 (μM) A549, CCK-8, 48 h, average ± SD of three independent experiments
PC-9 cells = test: CCK-8 antiproliferation assay, PC-9; conditions: for IC50: PC-9, 48 h, read-out: IC50 (μM) PC-9; for Inhibitory efficacy: single repeats (Repeat 1-3), given as fraction
H1975 cells = test: CCK-8 antiproliferation assay, H1975; conditions: for IC50: NCI-H1975, 48 h, read-out: IC50 (μM) H1975, CCK-8, 48 h, average ± SD of three independent experiments
[1] = concentration 0.3 nM, 0.0003 µM
[2] = 2uM, given as fraction, Repeat 1-3
[3] = 16uM, given as fraction, Repeat 1-3
[4] = 1uM, given as fraction, Repeat 1-3
[5] = 4uM, given as fraction, Repeat 1-3
[6] = Homo sapiens, A549, read-out: Inhibitory efficacy, A549 cells, 2uM, given as fraction, Repeat 1-3
[7] = Homo sapiens, A549, read-out: Inhibitory efficacy, A549 cells, 4uM, given as fraction, Repeat 1-3
[8] = Homo sapiens, A549, read-out: Inhibitory efficacy, A549 cells, 16uM, given as fraction, Repeat 1-3

COCCOc1cc2ncnc(Nc3cccc(-c4cn(-c5ccc(OC)c(OC)c5)nn4)c3)c2cc1OCCOC [e19, N-(3-(1-(3,4-dimethoxyphenyl)-1H-1,2,3-triazol-4-yl)phenyl)-6,7-bis(2-methoxyethoxy)quinazolin-4-amine]
melting point: 106 to 109 °C
IC50 (wild-type EGFR): 28.1 µM
inhibition at 100 fM (wild-type EGFR): 0%
inhibition at 30 pM (wild-type EGFR; concentration 0.03 nM): 0%
inhibition at 0.0003 µM (wild-type EGFR; concentration 0.3 nM): 1.06%
Inhibition (wild-type EGFR; [1]): 0.9259
inhibition at 0.003 µM (wild-type EGFR; concentration 3 nM): 2.12%
Inhibition (wild-type EGFR; concentration 3 nM, 0.003 µM): 3.333
inhibition at 0.03 µM (wild-type EGFR; concentration 30 nM): 6.35%
Inhibition (wild-type EGFR; concentration 30 nM, 0.03 µM): 7.222
inhibition at 0.3 µM (wild-type EGFR; concentration 300 nM): 6.7%
Inhibition (wild-type EGFR; concentration 300 nM, 0.3 µM): 10.3704
inhibition at 3 µM (wild-type EGFR; concentration 3000 nM): 8.29%
Inhibition (wild-type EGFR; concentration 3000 nM, 3 µM): 15.5556
inhibition at 30 µM (wild-type EGFR; concentration 30000 nM): 52.7%
Inhibition (wild-type EGFR; concentration 30000 nM, 30 µM): 51.6667
A450 (wild-type EGFR; concentration 0.0001 nM): 0.772 and 0.745
A450 (wild-type EGFR; concentration 0.03 nM): 0.772 and 0.745
A450 (wild-type EGFR; concentration 0.3 nM): 0.766 and 0.74
A450 (wild-type EGFR; concentration 3 nM): 0.76 and 0.727
A450 (wild-type EGFR; concentration 30 nM): 0.736 and 0.706
A450 (wild-type EGFR; concentration 300 nM): 0.734 and 0.689
A450 (wild-type EGFR; concentration 3000 nM): 0.725 and 0.661
A450 (wild-type EGFR; concentration 30000 nM): 0.473 and 0.466
Inhibitory efficacy (H460 cells; [2]): 0.2578 and 0.3115
Inhibitory efficacy (H460 cells; [3]): 0.424 and 0.3358
IC50 (H460 cells; Homo sapiens): > 100 µM
inhibition at 2 µM (H460 cells; Homo sapiens, NCI-H460, read-out: Inhibitory efficacy, H460 cells, 2uM, given as fraction, Repeat 1-3): 32.2%
inhibition at 16 µM (H460 cells; Homo sapiens, NCI-H460, read-out: Inhibitory efficacy, H460 cells, 16uM, given as fraction, Repeat 1-3): 33.1%
Inhibitory efficacy (A549 cells; [4]): 0.1948 and 0.1677
Inhibitory efficacy (A549 cells; [2]): 0.2727 and 0.2237
Inhibitory efficacy (A549 cells; [5]): 0.2792 and 0.2418
Inhibitory efficacy (A549 cells; [3]): 0.2527 and 0.2605
IC50 (A549 cells; Homo sapiens): > 100 µM
inhibition at 1 µM (A549 cells; Homo sapiens, A549, read-out: Inhibitory efficacy, A549 cells, 1uM, given as fraction, Repeat 1-3): 21.2%
inhibition at 2 µM (A549 cells; [6]): 23.7%
inhibition at 4 µM (A549 cells; [7]): 19.7%
inhibition at 16 µM (A549 cells; [8]): 26.2%
IC50 (PC-9 cells; Homo sapiens): 23.5 ± 10.2 µM
inhibition at 1 µM (PC-9 cells; Homo sapiens, PC-9, read-out: Inhibitory efficacy, PC-9, 1uM, single repeats (Repeat 1-3), given as fraction): 21.9%
inhibition at 2 µM (PC-9 cells; Homo sapiens, PC-9, read-out: Inhibitory efficacy, PC-9, 2uM, single repeats (Repeat 1-3), given as fraction): 32.9%
inhibition at 8 µM (PC-9 cells; Homo sapiens, PC-9, read-out: Inhibitory efficacy, PC-9, 8uM, single repeats (Repeat 1-3), given as fraction): 35.7%
inhibition at 16 µM (PC-9 cells; Homo sapiens, PC-9, read-out: Inhibitory efficacy, PC-9, 16uM, single repeats (Repeat 1-3), given as fraction): 49.7%
Inhibitory efficacy (PC-9 cells; PC-9, 1uM, 1 µM): 0.1694 and 0.3158
Inhibitory efficacy (PC-9 cells; PC-9, 2uM, 2 µM): 0.2911 and 0.3553
Inhibitory efficacy (PC-9 cells; PC-9, 4uM, 4 µM): 0.4984 and 0.2516 and 0.3668
Inhibitory efficacy (PC-9 cells; PC-9, 8uM, 8 µM): 0.4737 and 0.4424
Inhibitory efficacy (PC-9 cells; PC-9, 16uM, 16 µM): 0.4062 and 0.4457
IC50 (H1975 cells; Homo sapiens): > 100 µM

COCCOc1cc2ncnc(Nc3cccc(-c4cn(CCc5ccccc5)nn4)c3)c2cc1OCCOC [e20, [6,7-Bis-(2-methoxy-ethoxy)-quinazolin-4-yl]-[3-(1-phenethyl-1H-[1,2,3]triazol-4-yl)-phenyl]-amine]
melting point: 109 to 112 °C
IC50 (wild-type EGFR): 0.28 µM
inhibition at 100 fM (wild-type EGFR): 0%
inhibition at 30 pM (wild-type EGFR; concentration 0.03 nM): 3.3%
Inhibition (wild-type EGFR; concentration 0.03 nM, 3e-05 µM): 3.99
inhibition at 0.0003 µM (wild-type EGFR; concentration 0.3 nM): 21.7%
Inhibition (wild-type EGFR; [1]): 27.0358
inhibition at 0.003 µM (wild-type EGFR; concentration 3 nM): 38.5%
Inhibition (wild-type EGFR; concentration 3 nM, 0.003 µM): 33.7948
inhibition at 0.03 µM (wild-type EGFR; concentration 30 nM): 40.5%
Inhibition (wild-type EGFR; concentration 30 nM, 0.03 µM): 35.1792
inhibition at 0.3 µM (wild-type EGFR; concentration 300 nM): 42.1%
Inhibition (wild-type EGFR; concentration 300 nM, 0.3 µM): 40.798
inhibition at 3 µM (wild-type EGFR; concentration 3000 nM): 55.8%
Inhibition (wild-type EGFR; concentration 3000 nM, 3 µM): 51.9544
inhibition at 30 µM (wild-type EGFR; concentration 30000 nM): 88.6%
Inhibition (wild-type EGFR; concentration 30000 nM, 30 µM): 85.4235
A450 (wild-type EGFR; concentration 0.0001 nM): 1.605 and 1.533
A450 (wild-type EGFR; concentration 0.03 nM): 1.562 and 1.484
A450 (wild-type EGFR; concentration 0.3 nM): 1.323 and 1.201
A450 (wild-type EGFR; concentration 3 nM): 1.104 and 1.118
A450 (wild-type EGFR; concentration 30 nM): 1.078 and 1.101
A450 (wild-type EGFR; concentration 300 nM): 1.057 and 1.032
A450 (wild-type EGFR; concentration 3000 nM): 0.879 and 0.895
A450 (wild-type EGFR; concentration 30000 nM): 0.452 and 0.484
Inhibitory efficacy (H460 cells; [4]): 0.1948 and 0.1895
Inhibitory efficacy (H460 cells; [5]): 0.1258 and 0.07143
IC50 (H460 cells; Homo sapiens): > 100 µM
inhibition at 1 µM (H460 cells; Homo sapiens, NCI-H460, read-out: Inhibitory efficacy, H460 cells, 1uM, given as fraction, Repeat 1-3): 17.3%
inhibition at 4 µM (H460 cells; Homo sapiens, NCI-H460, read-out: Inhibitory efficacy, H460 cells, 4uM, given as fraction, Repeat 1-3): 9.76%
Inhibitory efficacy (A549 cells; [2]): 0.2224 and 0.1702
Inhibitory efficacy (A549 cells; [5]): 0.2939 and 0.3309
Inhibitory efficacy (A549 cells; 8uM, given as fraction, Repeat 1-3): 0.2956 and 0.3275
Inhibitory efficacy (A549 cells; [3]): 0.2156 and 0.1736
IC50 (A549 cells; Homo sapiens): > 100 µM
inhibition at 2 µM (A549 cells; [6]): 18.8%
inhibition at 4 µM (A549 cells; [7]): 29.1%
inhibition at 8 µM (A549 cells; Homo sapiens, A549, read-out: Inhibitory efficacy, A549 cells, 8uM, given as fraction, Repeat 1-3): 22.2%
inhibition at 16 µM (A549 cells; [8]): 20.2%
IC50 (PC-9 cells; Homo sapiens): > 100 µM
Inhibitory efficacy (H1975 cells; H1975 cells, 16uM, given as fraction, Repeat 1-3): 0.06216 and 0.05712
IC50 (H1975 cells; Homo sapiens): > 100 µM
inhibition at 16 µM (H1975 cells; Homo sapiens, NCI-H1975, read-out: Inhibitory efficacy, H1975 cells, 16uM, given as fraction, Repeat 1-3): 8.81%
